Experimental findings from US9808456B2, “Piperazine thiazole derivatives useful in the treatment of tauopathies such as Alzheimer's disease” (REMYND NV, priority 2011, dated 2017) are described below.

SMILES strings stand for the structures.

A short description of data set [1]: Microsomal stability assay, human liver microsomes (intrinsic clearance). The format is in vitro ADME. Conditions: read-out: CLint. (Hum). The method, then:
(§1) Microsomal Stability Testing—Assay Description
(§2) The microsomal stability assay measures the rate of disappearance of a test compound from an incubation containing human or animal liver microsomes and metabolic cofactors (typically NADPH). The assay is primarily used for ranking the relative CYP-mediated metabolism propensities of compounds within a chemical series and as a guide to selecting sufficiently stable compounds for pharmacokinetics and pharmacodynamics experiments. [In addition to CYPs, microsomally located enzymes which also make use of NADPH (such as […]) and those which require no cofactors (such as carboxylesterases) are active.]
(§3) Incubations are performed in 96-well deep-well plates with a final incubation volume of 600 μL. Incubations contain (finally) 1-20 μM test compound, 0.5 mg/mL liver microsomes (typically human, rat or mouse) and NADPH regenerating system. 50 μL aliquots are removed after 1, 3, 6, 9, 15, 25, 35 and 45 minutes and quenched in 150 μL acetonitrile containing internal standard. Samples are then cooled and centrifuged before analysis by LC-MS/MS.
(§4) Log peak area ratio (test compound peak area/internal standard peak area) is plotted against incubation time and a linear fit made to the data with emphasis upon the initial rate of compound disappearance. […]
A general note: Liver microsomes are vesicles of endoplasmic reticulum, rich in cytochrome P450 enzymes.

Data set [2] in a line: Microsomal stability assay, rat liver microsomes (intrinsic clearance). Format: in vitro ADME. The method, then:
as §1, §2, §3, §4

Data set [3] can be described thus: Lipophilicity (logD) by Carrier mediated distribution system (CAMDIS). The format is physicochemical. The method, then: Lipophilicity data were measured with the Carrier mediated distribution system (CAMDIS) as described in EP1705474A1.
A further data set relates to M17_3TAU(P301L) cells. In words: Neuroblastoma tauopathy model: inhibition of TAU-induced cytotoxicity (LDH) after retinoic acid differentiation. The format is cell-based. To be noted: Homo sapiens, 168 h, inhibition of TAU-induced toxicity, 7 days retinoic acid, LDH readout. The source says: A TAU expression plasmid was constructed by sub-cloning the cDNA encoding for human TAU-P301L protein, wherein proline at position 301 is substituted by a leucine residue, into mammalian expression vector pcDNA3.1 resulting in the plasmid pcDNA3.1-TAUP301L. Plasmids pcDNA3.1 and pcDNA3.1-TAU P301L were transfected into human neuroblastoma cells (BE-M17; ATCC No. CRL2267™) using lipofectamine reagent and subsequently, independent clonal cell lines with the plasmids stably integrated into the genome were selected by antibiotic resistance selection (Geneticin (G418)), resulting in cell lines M17.pcDNA3 and M17_3TAUP301L. Expression of the TAUP301L gene in the M17_3TAUP301L cells was confirmed by Western blot analysis.
Differentiation of the cells with RA leads to phosphorylation and subsequent aggregation of TAU, inducing a tauopathy in these cells. Cytotoxicity of cells was measured by quantification of lactate dehydrogenase (LDH) levels. In dead cells LDH is leaked out of the cells into the medium due to a loss of plasma-membrane integrity.
Briefly, 3 days preceeding the experiment pre-cultures of M17.pcDNA3 and M17_3TAU(P301L) cells were prepared, starting from a stock culture, at a density of 50.000-100.000 cells/cm2 in detection medium (Optimem Reduced Serum without phenol red (Gibco, Cat. 31985-047) supplemented with 1% fetal calf serum (FCS), 1 mM sodium pyruvate, 1× non-essential amino acids (NEAR), 500 μg/ml G418 and 0.5× antibiotic/antimycotic (ABAM)). At the day of the experiment these precultures were diluted to ˜0, 1.106 cells/ml in detection medium without FCS and 60 μL of this suspension is dispensed per well into a 96-well microtiter plate. After 3 hours of incubation at 37° C./5% CO2 an equal volume of detection medium containing 2.5 μM RA was added and subsequently incubated for 7 days at 37° C./5% CO2. After 7 days, LDH activity was determined using the Promega Cytotox 96 Non-Radioactive cytotoxicity assay (Cat. G1780), according the manufacturer's instructions. Cytotoxicity is measured as the ratio of LDH increase in the supernatant divided by the LDH increase in the total cell suspension (sum of the LDH measured in cells and supernatant).
The M17_3TAU(P301L) cell line makes it possible to assess the ability of novel compounds to inhibit TAU-induced cytotoxicity. […] Compounds were tested for their ability to hamper TAU-induced toxicity at different concentrations, ranging from low non-effective concentrations to high potent concentrations. Afterwards, the dose-dependent inhibition curve was used to calculate their EC50 (Table III).

Take `Clc1ccc(CCN2CCN(c3nc(Cc4ccc(Cl)cc4)ns3)CC2)cc1` [reference compound]: the microsomal CLint in data set [1] turned out to be 43 µL/min/mg; in data set [2] it was 48 µL/min/mg.

Regarding `FC1(F)CCN(c2nsc(N3CCN(CCc4ccc(Cl)cc4)CC3)n2)CC1` [Example 2, 1-[2-(4-Chloro-phenyl)-ethyl]-4-[3-(4,4-difluoro-piperidin-1-yl)-[1,2,4]thiadiazol-5-yl]-piperazine], the microsomal CLint in data set [1] came to 17 µL/min/mg; in data set [2], 80 µL/min/mg. Besides, the logD – broadly, the decadic logarithm of the distribution of all forms, ionised or not, between an organic phase and buffer at a given pH – in data set [3] stood at 2.93. In addition, in the data set on M17_3TAU(P301L) cells, a half-maximal response (EC50) required 53.6 nM.
